Reference: patent US4701455A, “Biopterin analogs” (Burroughs Wellcome Co., priority 1983, dated 1987)

Tests used:
Type in all cases: biochemical
bovine liver DHFR = target: T1, bovine liver DHFR (Bos taurus, UniProt P00376); test: Dihydrofolate reductase assay; conditions: for Dihydrofolate reductase V: 7,8-dihydro form, relative to 7,8-dihydrobiopterin = 100, bovine liver DHFR
T1 construct: bovine liver DHFR; from tissue; host or cells: bovine liver
T1 sequence (P00376 1-187): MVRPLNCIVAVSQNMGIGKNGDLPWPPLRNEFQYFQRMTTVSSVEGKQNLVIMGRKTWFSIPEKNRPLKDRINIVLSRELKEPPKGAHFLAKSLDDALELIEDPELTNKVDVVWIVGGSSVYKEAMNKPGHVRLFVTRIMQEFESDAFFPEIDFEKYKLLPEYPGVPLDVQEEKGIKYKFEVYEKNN
Description: These assays were carried out on the 7,8-dihydropterin analogs of the compounds of formula I which was tetrahydropterins. The 7,8-dihydropterinswere obtained commercially (in the case of dihydrobiopterin) or synthesized from the corresponding compound of formula I. Synthesis of 7,8-dihydropterins involved the combination of 0.27 μmole of a compound of formula I, 20 μg of horseradish peroxidase, 0.6 μmole of hydrogen peroxide in 0.1 ml of 0.5M potassium phosphate buffer, pH 7.5. After 3 min at room temperature, 10 μg of bovine liver catalase was added. The production of the 7,8-dihydropterin was verified by U.V. spectroscopy.
The assay was carried out with bovine liver DHFR using a modification of the method of Bailey and Ayling (J. Biol. Chem., 253, 1598 (1978)) where the desired dihydropterin replaced dihydrobiopterin, and the HPLC system used consisted of an anaerobic 0.1M acetic acid (with or without 10% acetonitrite) solvent on a 25 cm×4.6 mm Dupont TMS-Zorbax column. In our hands, dihydrobiopterin is reduced at a rate 2.5% that of the natural substrate dihydrofolate.

[1] = target: T2, Phenylalanine hydroxylase (Rattus norvegicus, UniProt P04176); test: Phenylalanine hydroxylase cofactor assay; conditions: rat liver enzyme; relative to tetrahydrobiopterin = 100
T2 construct: Phenylalanine hydroxylase was prepared from rat liver; from tissue; host or cells: rat liver
T2 sequence (P04176 1-453): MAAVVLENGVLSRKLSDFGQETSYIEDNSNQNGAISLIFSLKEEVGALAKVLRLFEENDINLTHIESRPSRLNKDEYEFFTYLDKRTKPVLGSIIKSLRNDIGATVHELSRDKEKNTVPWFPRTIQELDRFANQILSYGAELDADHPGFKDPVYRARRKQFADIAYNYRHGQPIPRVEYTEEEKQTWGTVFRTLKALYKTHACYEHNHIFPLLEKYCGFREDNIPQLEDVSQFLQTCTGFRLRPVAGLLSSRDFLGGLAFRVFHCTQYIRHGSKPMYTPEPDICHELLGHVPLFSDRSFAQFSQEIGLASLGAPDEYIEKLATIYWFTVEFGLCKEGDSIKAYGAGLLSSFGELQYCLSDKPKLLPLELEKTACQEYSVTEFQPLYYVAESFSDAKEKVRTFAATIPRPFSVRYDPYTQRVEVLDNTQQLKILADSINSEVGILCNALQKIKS
Description: Phenylalanine hydroxylase was measured as described in Shiman, R. et al., (J. Biol. Chem. 254: 11300 (1979)) except that the product of the reaction (tyrosine) was measured fluorometrically using the method of Waalkes, T. P. and Udenfriend, S. (J. Lab. Clin. Med. 50: 733 (1957). Phenylalanine hydroxylase was prepared from rat liver using hydrophobic chromatography (Shiman, R. et al. (J. Biol. Chem. 254: 11,300 (1979)). The specific activity of the enzyme, using BH4 as the co-factor, was 1.0 μmol/mg protein per minute at 37°.

Tryptophan hydroxylase = target: T3, Tryptophan hydroxylase (Rattus norvegicus, UniProt Q8CGU9); test: Tryptophan hydroxylase cofactor assay; conditions: relative to tetrahydrobiopterin = 100
T3 construct: crude 30,000×g supernatant; from tissue
T3 sequence (Q8CGU9 1-485): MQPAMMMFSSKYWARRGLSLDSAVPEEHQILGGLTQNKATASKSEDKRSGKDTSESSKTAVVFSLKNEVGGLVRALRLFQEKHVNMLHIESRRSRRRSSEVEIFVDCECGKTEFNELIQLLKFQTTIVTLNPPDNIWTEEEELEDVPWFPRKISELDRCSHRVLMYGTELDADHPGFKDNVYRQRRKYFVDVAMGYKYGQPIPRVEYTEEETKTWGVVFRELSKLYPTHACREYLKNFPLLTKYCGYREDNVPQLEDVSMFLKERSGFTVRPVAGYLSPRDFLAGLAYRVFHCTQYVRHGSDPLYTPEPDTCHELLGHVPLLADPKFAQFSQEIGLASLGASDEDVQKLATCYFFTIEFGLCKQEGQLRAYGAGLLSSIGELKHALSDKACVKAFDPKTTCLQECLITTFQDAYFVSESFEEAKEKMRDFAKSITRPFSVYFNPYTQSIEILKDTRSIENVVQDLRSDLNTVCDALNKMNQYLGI
Description: Trytophan hydroxylase was assayed according to a modification of the method of Renson J., et al (Biochem. Biophys. Acta 25: 504 (1966)). The preparation of tryptophan hydroxylase was a crude 30,000×g supernatant which had been desalted on a Sephadex G-25 (Trade Name) column (Boadle-Biker, M.C., Biochem Pharmacol. 28: 2129 (1979).

Tyrosine hydroxylase = Tyrosine hydroxylase (Homo sapiens, UniProt P07101); test: Tyrosine hydroxylase cofactor assay; conditions: relative to tetrahydrobiopterin = 100
Description: Tyrosine hydroxylate was partially purified through a 25-45% ammonium sulfate fraction. […] The enzyme was assayed by a modification of the method of Nagatsu, T., Levitt, M., and Udenfriend, S. (Anal. Biochem. 9, 122, (1964)) where the Dowex chromatography step was replaced by a charcoal extraction.

[2] = test system: Dihydropteridine reductase; test: Dihydropteridine reductase assay; conditions: quinonoid dihydro form; relative to tetrahydrobiopterin form = 100
Description: Dihydropteridine reductase was assayed by the method of Craine, et al., (J. Biol. Chem., 247, 6082 (1972)).

Tyrosine hydroxylase, sequence (P07101 whole entry): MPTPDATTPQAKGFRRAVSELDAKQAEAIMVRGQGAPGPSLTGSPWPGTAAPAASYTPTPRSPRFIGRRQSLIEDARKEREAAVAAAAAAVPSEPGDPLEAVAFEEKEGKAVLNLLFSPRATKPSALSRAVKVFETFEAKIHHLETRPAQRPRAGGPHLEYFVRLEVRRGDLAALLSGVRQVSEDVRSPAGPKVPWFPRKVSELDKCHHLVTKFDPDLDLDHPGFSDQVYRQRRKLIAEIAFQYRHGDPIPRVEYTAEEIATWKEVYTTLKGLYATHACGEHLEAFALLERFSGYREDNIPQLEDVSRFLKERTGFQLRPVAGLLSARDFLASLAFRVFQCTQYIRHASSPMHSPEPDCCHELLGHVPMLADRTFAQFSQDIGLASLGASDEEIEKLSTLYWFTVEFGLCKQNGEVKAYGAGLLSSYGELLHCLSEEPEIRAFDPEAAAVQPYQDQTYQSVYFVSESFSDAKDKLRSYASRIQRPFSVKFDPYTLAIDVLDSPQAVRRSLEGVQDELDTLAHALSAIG

C[C@H](O)[C@H](O)C1=Nc2c(nc(N)[nH]c2=O)NC1 [7,8-Dihydrobiopterin]
Rate of reduction by DHFR relative to dihydrofolate (bovine liver DHFR; relative to natural substrate dihydrofolate): 2.5%

C[C@H](O)[C@H](O)[C@H]1CNc2nc(N)[nH]c(=O)c2N1 [Tetrahydrobiopterin]
Phenylalanine hydroxylase Vmax [1]: 100% | Tryptophan hydroxylase Vmax (Tryptophan hydroxylase): 100% | Dihydrofolate reductase V (bovine liver DHFR): 100% | Tyrosine hydroxylase Vmax (Tyrosine hydroxylase): 100% | Dihydropteridine reductase Vmax [2]: 100%

COCC1CNc2nc(N)[nH]c(=O)c2N1 (racemic) [6-Methoxymethyl-tetrahydropterin, (+-)-2-Amino-5,6,7,8-tetrahydro-6-methoxymethyl-4(3H)-pteridinone]
Phenylalanine hydroxylase Vmax [1]: 79% | Tryptophan hydroxylase Vmax (Tryptophan hydroxylase): 54% | Dihydrofolate reductase V (bovine liver DHFR): 800% | Tyrosine hydroxylase Vmax (Tyrosine hydroxylase): 124% | Dihydropteridine reductase Vmax [2]: 295%
